Here are results for four compounds from patent US11453703B2, “Heterotandem bicyclic peptide complexes” (BicycleTX Limited, priority 2018, dated 2022).

For one series, the target named is human EphA2 protein (Homo sapiens, UniProt P29317). The experiment in a line: EphA2 Biacore (SPR) binding assay. The settings on record: biotinylated human EphA2, 25° C. The method, then:
Biacore experiments were performed to determine ka (M^−1s^−1), kd (s^−1), KD (nM) values of heterotandem peptides binding to human EphA2 protein.
EphA2 were biotinylated with EZ-Link™ Sulfo-NHS-LC-Biotin for 1 hour in 4 mM sodium acetate, 100 mM NaCl, pH 5.4 with a 3× molar excess of biotin over protein. The degree of labelling was determined using a Fluorescence Biotin Quantification Kit (Thermo) after dialysis of the reaction mixture into PBS. For analysis of peptide binding, a Biacore T200 instrument was used with a XanTec CMD500D chip. Streptavidin was immobilized on the chip using standard amine-coupling chemistry at 25° C. with HBS-N (10 mM HEPES, 0.15 M NaCl, pH 7.4) as the running buffer. Briefly, the carboxymethyl dextran surface was activated with a 7 min injection of a 1:1 ratio of 0.4 M 1-ethyl-3-(3-dimethylaminopropyl) carbodiimide hydrochloride (EDC)/0.1 M N-hydroxy succinimide (NHS) at a flow rate of 10 it/min. For capture of streptavidin, the protein was diluted to 0.2 mg/ml in 10 mM sodium acetate (pH 4.5) and captured by injecting 120 μl onto the activated chip surface. Residual activated groups were blocked with a 7 min injection of 1 M ethanolamine (pH 8.5):HBS-N (1:1). Buffer was changed to PBS/0.05% Tween 20 and biotinylated EphA2 was captured to a level of 500-1500 RU using a dilution of protein to 0.2 μM in buffer. A dilution series of the peptides was prepared in this buffer with a final DMSO concentration of 0.5% with a top peptide concentration was 50 or 100 nM and 6 further 2-fold dilutions. The SPR analysis was run at 25° C. at a flow rate of 90 μl/min with 60 seconds association and 900-1200 seconds dissociation. Data were corrected for DMSO excluded volume effects. All data were double-referenced for blank injections and reference surface using standard processing procedures and data processing and kinetic fitting were performed using Scrubber software, version 2.0c (BioLogic Software). Data were fitted using simple 1:1 binding model allowing for mass transport effects where appropriate.
Background: Surface plasmon resonance follows binding to a sensor surface in real time, without labels.

The target in series [1] is T1, CD137 (Homo sapiens, UniProt Q07011). Briefly: CD137 reporter assay, co-culture with EphA2 tumour cells. The series is classed as cell-based. Also on record: host or cells: Jurkat reporter cells. The settings on record: tumour target EphA2, co-culture with SC-OV-3, 6 h. In short, it runs like this: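 Jurkat CD137 reporter cells co-cultured with tumour cells and serially diluted test articles in RPMI-1640 + 1% FBS, 6 h at 37 °C, 5% CO2. Luminescence read after Bio-Glo; fold change over cells-only background fitted log(agonist) vs response for EC50 (nM) and maximal fold induction.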
On the technique in general: In a reporter assay the amount or activity of a reporter protein is the signal.

The target in series [2] is T1, CD137. The experiment in a line: CD137 Biacore (SPR) binding assay. The arrangement: purchased R&D systems. The settings on record: biotinylated human CD137, 25° C. The protocol: Biacore experiments were performed to determine ka (M^−1s^−1), kd (s^−1), KD (nM) values of heterotandem peptides binding to human CD137 protein. […] The protein was desalted to remove uncoupled biotin using spin columns into PBS.
For analysis of peptide binding, a Biacore T200 or a Biacore 3000 instrument was used with a XanTec CMD500D chip. Streptavidin was immobilized on the chip using standard amine-coupling chemistry at 25° C. with HBS-N (10 mM HEPES, 0.15 M NaCl, pH 7.4) as the running buffer. Briefly, the carboxymethyl dextran surface was activated with a 7 min injection of a 1:1 ratio of 0.4 M 1-ethyl-3-(3-dimethylaminopropyl) carbodiimide hydrochloride (EDC)/0.1 M N-hydroxy succinimide (NHS) at a flow rate of 10 μl/min. For capture of streptavidin, the protein was diluted to 0.2 mg/ml in 10 mM sodium acetate (pH 4.5) and captured by injecting 120 μl of onto the activated chip surface. Residual activated groups were blocked with a 7 min injection of 1 M ethanolamine (pH 8.5) and biotinylated CD137 captured to a level of 270-1500 RU. Buffer was changed to PBS/0.05% Tween 20 and a dilution series of the peptides was prepared in this buffer with a final DMSO concentration of 0.5%. The top peptide concentration was 500 nM with 6 further 2-fold or 3-fold dilutions. The SPR analysis was run at 25° C. at a flow rate of 90 μl/min with 60 seconds association and 900 seconds dissociation. After each cycle a regeneration step (10 μl of 10 mM glycine pH 2) was employed. Data were corrected for DMSO excluded volume effects as needed. All data were double-referenced for blank injections and reference surface using standard processing procedures and data processing and kinetic fitting were performed using Scrubber software, version 2.0c (BioLogic Software). Data were fitted using simple 1:1 binding model allowing for mass transport effects where appropriate.

T1 sequence (Q07011 24-255): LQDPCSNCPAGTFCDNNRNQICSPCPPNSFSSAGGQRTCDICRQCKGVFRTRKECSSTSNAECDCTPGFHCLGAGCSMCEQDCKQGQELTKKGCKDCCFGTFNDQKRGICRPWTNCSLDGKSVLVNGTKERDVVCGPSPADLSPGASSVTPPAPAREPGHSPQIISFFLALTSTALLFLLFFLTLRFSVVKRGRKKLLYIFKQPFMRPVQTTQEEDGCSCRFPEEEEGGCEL
human EphA2 protein, sequence (P29317 24-976): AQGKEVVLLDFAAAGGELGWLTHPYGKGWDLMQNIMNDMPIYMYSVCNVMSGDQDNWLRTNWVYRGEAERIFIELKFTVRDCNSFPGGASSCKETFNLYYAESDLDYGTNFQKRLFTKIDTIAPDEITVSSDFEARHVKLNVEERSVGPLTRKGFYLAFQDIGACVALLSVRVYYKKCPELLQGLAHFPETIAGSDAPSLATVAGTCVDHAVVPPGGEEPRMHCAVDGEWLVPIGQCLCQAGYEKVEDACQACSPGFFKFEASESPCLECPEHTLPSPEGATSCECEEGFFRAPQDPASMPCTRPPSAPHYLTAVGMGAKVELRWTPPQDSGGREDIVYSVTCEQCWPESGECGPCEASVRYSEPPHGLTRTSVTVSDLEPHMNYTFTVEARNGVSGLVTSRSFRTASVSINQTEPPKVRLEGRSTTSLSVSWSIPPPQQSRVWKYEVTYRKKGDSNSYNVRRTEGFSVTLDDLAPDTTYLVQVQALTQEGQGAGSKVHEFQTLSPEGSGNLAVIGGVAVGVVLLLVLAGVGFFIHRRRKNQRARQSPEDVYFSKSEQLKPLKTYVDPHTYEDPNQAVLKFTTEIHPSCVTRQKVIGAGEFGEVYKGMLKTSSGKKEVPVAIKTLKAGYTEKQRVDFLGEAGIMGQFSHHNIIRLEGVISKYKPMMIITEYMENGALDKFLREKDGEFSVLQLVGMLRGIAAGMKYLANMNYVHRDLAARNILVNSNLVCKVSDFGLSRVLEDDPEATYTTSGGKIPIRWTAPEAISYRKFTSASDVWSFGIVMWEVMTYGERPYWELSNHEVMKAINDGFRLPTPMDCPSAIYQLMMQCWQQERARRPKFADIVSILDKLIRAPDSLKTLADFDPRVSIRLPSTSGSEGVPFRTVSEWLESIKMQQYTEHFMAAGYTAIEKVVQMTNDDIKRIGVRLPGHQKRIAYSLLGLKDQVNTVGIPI

For orientation: Kd means the free concentration of one partner at which half of the binding sites on the other are occupied at equilibrium, for simple one-to-one binding. A high value points to lower affinity. As usually defined, the EC50 is the midpoint of the concentration-response curve. In the case of `CCCC[C@@H]1NC(=O)[C@H](Cc2ccc(O)cc2)NC(=O)[C@@H]2CCCN2C(=O)[C@H](CC(=O)O)NC(=O)[C@H](C)NC(=O)[C@H](Cc2ccccc2)NC(=O)[C@@H]2CSCCC(=O)N3CN(CN(C3)C(=O)CCSC[C@@H](C(=O)N[C@@H](CNC(=O)CCc3cn(CCOCCOCCOCCOCCOCCOCCOCCOCCOCCOCCNC(=O)NCCC(=O)N(C)CC(=O)N(C)CC(=O)N(C)CC(=O)N(C)CC(=O)N(C)CC(=O)N(C)CC(=O)N(C)CC(=O)N(C)CC(=O)N(C)CC(=O)N(C)CC(=O)N[C@@H](C)C(=O)N[C@@H](CCCCNC(=N)N)C(=O)N[C@@H](CC(=O)O)C(=O)N[C@H]4CSCCC(=O)N5CN6CN(C5)C(=O)CCSC[C@H](NC(=O)[C@H](CC(C)C)NC(=O)[C@@H]5CCCN5C(=O)[C@H](CC(N)=O)NC(=O)[C@H](C(C)C)NC(=O)[C@H](CC(C)C)NC(=O)[C@@H]5C[C@@H](O)CN5C4=O)C(=O)N[C@@H](CC(C)C)C(=O)N[C@@H](Cc4c[nH]cn4)C(=O)N4CCC[C@H]4C(=O)N[C@H](CC(=O)O)C(=O)N[C@@H](Cc4c[nH]c5ccccc45)C(=O)N[C@@H](CCCCNC(=N)N)C(=O)N[C@H](C(N)=O)CSCCC6=O)nn3)C(N)=O)NC1=O)C(=O)CCSC[C@H](NC(=O)[C@H](C)NC(C)=O)C(=O)N[C@@H]([C@@H](C)CC)C(=O)N[C@@H](CCC(=O)O)C(=O)N[C@@H](CCC(=O)O)C(=O)NCC(=O)N[C@@H](CCC(N)=O)C(=O)N[C@@H](Cc1ccc(O)cc1)C(=O)N2` [BCY9647], on human EphA2 protein, the Kd is 1.69 nM. At CD137 [1], the EC50 is 7.2 nM and the “Fold Induction over Background” value amounted to 24 fold. The compound further showed a Kd on CD137 [2] of 206 nM.
In the case of `CCCC[C@@H]1NC(=O)[C@H](Cc2ccc(O)cc2)NC(=O)[C@@H]2CCCN2C(=O)[C@H](CC(=O)O)NC(=O)[C@H](C)NC(=O)[C@H](Cc2ccccc2)NC(=O)[C@@H]2CSCCC(=O)N3CN(CN(C3)C(=O)CCSC[C@@H](C(=O)N[C@@H](CNC(=O)CCc3cn(CCOCCOCCOCCOCCOCCOCCOCCOCCOCCOCCOCCOCCOCCOCCOCCOCCOCCOCCOCCOCCOCCOCCOCCNC(=O)NCCC(=O)N(C)CC(=O)N(C)CC(=O)N(C)CC(=O)N(C)CC(=O)N(C)CC(=O)N(C)CC(=O)N(C)CC(=O)N(C)CC(=O)N(C)CC(=O)N(C)CC(=O)N[C@@H](C)C(=O)N[C@@H](CCCCNC(=N)N)C(=O)N[C@@H](CC(=O)O)C(=O)N[C@H]4CSCCC(=O)N5CN6CN(C5)C(=O)CCSC[C@H](NC(=O)[C@H](CC(C)C)NC(=O)[C@@H]5CCCN5C(=O)[C@H](CC(N)=O)NC(=O)[C@H](C(C)C)NC(=O)[C@H](CC(C)C)NC(=O)[C@@H]5C[C@@H](O)CN5C4=O)C(=O)N[C@@H](CC(C)C)C(=O)N[C@@H](Cc4c[nH]cn4)C(=O)N4CCC[C@H]4C(=O)N[C@H](CC(=O)O)C(=O)N[C@@H](Cc4c[nH]c5ccccc45)C(=O)N[C@@H](CCCCNC(=N)N)C(=O)N[C@H](C(N)=O)CSCCC6=O)nn3)C(N)=O)NC1=O)C(=O)CCSC[C@H](NC(=O)[C@H](C)NC(C)=O)C(=O)N[C@@H]([C@@H](C)CC)C(=O)N[C@@H](CCC(=O)O)C(=O)N[C@@H](CCC(=O)O)C(=O)NCC(=O)N[C@@H](CCC(N)=O)C(=O)N[C@@H](Cc1ccc(O)cc1)C(=O)N2` [BCY9648], the Kd on human EphA2 protein stood at 1.75 nM; on CD137 [2] it was 202 nM. Further, at CD137 [1], the EC50 stood at 9.3 nM. The “Fold Induction over Background” value on CD137 [1] came out at 20 fold.
The matching figures for `CCCC[C@@H]1NC(=O)[C@H](Cc2ccc(O)cc2)NC(=O)[C@@H]2CCCN2C(=O)[C@H](CC(=O)O)NC(=O)[C@H](C)NC(=O)[C@H](Cc2ccccc2)NC(=O)[C@@H]2CSCCC(=O)N3CN(CN(C3)C(=O)CCSC[C@@H](C(=O)N[C@@H](CNC(=O)CCc3cn(CCCNC(=O)CN(C)C(=O)CN(C)C(=O)CN(C)C(=O)CN(C)C(=O)CN(C)C(=O)CCOCCOCCOCCOCCOCCOCCOCCOCCOCCOCCOCCOCCOCCOCCOCCNC(=O)NCCC(=O)N(C)CC(=O)N(C)CC(=O)N(C)CC(=O)N(C)CC(=O)N(C)CC(=O)N(C)CC(=O)N(C)CC(=O)N(C)CC(=O)N(C)CC(=O)N(C)CC(=O)N[C@@H](C)C(=O)N[C@@H](CCCCNC(=N)N)C(=O)N[C@@H](CC(=O)O)C(=O)N[C@H]4CSCCC(=O)N5CN6CN(C5)C(=O)CCSC[C@H](NC(=O)[C@H](CC(C)C)NC(=O)[C@@H]5CCCN5C(=O)[C@H](CC(N)=O)NC(=O)[C@H](C(C)C)NC(=O)[C@H](CC(C)C)NC(=O)[C@@H]5C[C@@H](O)CN5C4=O)C(=O)N[C@@H](CC(C)C)C(=O)N[C@@H](Cc4c[nH]cn4)C(=O)N4CCC[C@H]4C(=O)N[C@H](CC(=O)O)C(=O)N[C@@H](Cc4c[nH]c5ccccc45)C(=O)N[C@@H](CCCCNC(=N)N)C(=O)N[C@H](C(N)=O)CSCCC6=O)nn3)C(N)=O)NC1=O)C(=O)CCSC[C@H](NC(=O)[C@H](C)NC(C)=O)C(=O)N[C@@H]([C@@H](C)CC)C(=O)N[C@@H](CCC(=O)O)C(=O)N[C@@H](CCC(=O)O)C(=O)NCC(=O)N[C@@H](CCC(N)=O)C(=O)N[C@@H](Cc1ccc(O)cc1)C(=O)N2` [BCY9655]: 1.33 nM, 199 nM, 4.1 nM and 6 fold.
`CCCC[C@@H]1NC(=O)[C@H](Cc2ccc(O)cc2)NC(=O)[C@@H]2CCCN2C(=O)[C@H](CC(=O)O)NC(=O)[C@H](C)NC(=O)[C@H](Cc2ccccc2)NC(=O)[C@@H]2CSCCC(=O)N3CN(CN(C3)C(=O)CCSC[C@@H](C(=O)N[C@@H](CNC(=O)CCc3cn(CCCNC(=O)CN(C)C(=O)CN(C)C(=O)CN(C)C(=O)CN(C)C(=O)CN(C)C(=O)CN(C)C(=O)CN(C)C(=O)CN(C)C(=O)CN(C)C(=O)CN(C)C(=O)COCCOCCOCCOCCOCCOCCOCCOCCOCCOCCNC(=O)NCCC(=O)N(C)CC(=O)N(C)CC(=O)N(C)CC(=O)N(C)CC(=O)N(C)CC(=O)N(C)CC(=O)N(C)CC(=O)N(C)CC(=O)N(C)CC(=O)N(C)CC(=O)N[C@@H](C)C(=O)N[C@@H](CCCCNC(=N)N)C(=O)N[C@@H](CC(=O)O)C(=O)N[C@H]4CSCCC(=O)N5CN6CN(C5)C(=O)CCSC[C@H](NC(=O)[C@H](CC(C)C)NC(=O)[C@@H]5CCCN5C(=O)[C@H](CC(N)=O)NC(=O)[C@H](C(C)C)NC(=O)[C@H](CC(C)C)NC(=O)[C@@H]5C[C@@H](O)CN5C4=O)C(=O)N[C@@H](CC(C)C)C(=O)N[C@@H](Cc4c[nH]cn4)C(=O)N4CCC[C@H]4C(=O)N[C@H](CC(=O)O)C(=O)N[C@@H](Cc4c[nH]c5ccccc45)C(=O)N[C@@H](CCCCNC(=N)N)C(=O)N[C@H](C(N)=O)CSCCC6=O)nn3)C(N)=O)NC1=O)C(=O)CCSC[C@H](NC(=O)[C@H](C)NC(C)=O)C(=O)N[C@@H]([C@@H](C)CC)C(=O)N[C@@H](CCC(=O)O)C(=O)N[C@@H](CCC(=O)O)C(=O)NCC(=O)N[C@@H](CCC(N)=O)C(=O)N[C@@H](Cc1ccc(O)cc1)C(=O)N2` [BCY9656] yielded a Kd at human EphA2 protein of 0.75 nM. On CD137 [1], the EC50 came out at 1.1 nM and the “Fold Induction over Background” value is 3 fold. The Kd on CD137 [2] came to 159 nM.
